From paper PMC8286840, “Identifying SARS-CoV-2 antiviral compounds by screening for small molecule inhibitors of Nsp3 papain-like protease” (Biochemical Journal, 2021)
Structures can show the parent of a compound that is named as a salt. Where two headings read alike, the source gives them in different places.

Assays:
[1] = molecular target: T1, SARS-CoV-2 PLpro (nsp3 1564–1878) (Severe acute respiratory syndrome coronavirus 2, UniProt P0DTD1); assay: biochemical; parameters: FRET-quenched peptide (Pro3) cleavage by PLpro, 10 min pre-incubation, slope over 20 min, normalised to no-compound control; settings: read-out: % of control remaining
[2] = molecular target: T1, SARS-CoV-2 PLpro (nsp3 1564–1878); assay: biochemical; parameters: FRET-quenched peptide (Pro3) cleavage by PLpro, 10 min pre-incubation, slope over 20 min, normalised to no-compound control; settings: read-out: % of control remaining; remark: listed apart in the source

## CN1CCC(=C2c3ccccc3C=Cc3ccccc32)CC1 [Cyproheptadine (hydrochloride)]
[1]; Well no.=6994, low concentration screen
  remaining activity at 1.25 µM: 97.6%
[2]; Well no.=6994, high concentration screen
  remaining activity at 3.75 µM: 99.7%

## CN1C(=O)CCS(=O)(=O)C1c1ccc(Cl)cc1 (stereo not drawn) [Chlormezanone]
[1]; Well no.=679, low concentration screen
  remaining activity at 1.25 µM: 99%
[2]; Well no.=679, high concentration screen
  remaining activity at 3.75 µM: 96.9%

## CO[C@H](C(=O)[C@@H](O)[C@@H](C)O)[C@@H]1Cc2cc3cc(O[C@H]4C[C@@H](O[C@@H]5C[C@@H](O)[C@H](O)[C@@H](C)O5)[C@H](O)[C@@H](C)O4)c(C)c(O)c3c(O)c2C(=O)[C@H]1O[C@H]1C[C@@H](O[C@@H]2C[C@@H](O)[C@@H](O[C@@H]3C[C@](C)(O)[C@H](O)[C@@H](C)O3)[C@@H](C)O2)[C@H](O)[C@@H](C)O1 [Mithramycin A]
[1]; Well no.=3411, low concentration screen
  remaining activity at 1.25 µM: 96.9%
[2]; Well no.=3411, high concentration screen
  remaining activity at 3.75 µM: 101%

## O=c1n(CCCN2CCN(c3cccc(Cl)c3)CC2)nc2ccccn12 [Trazodone hydrochloride]
[1]; Well no.=1339, low concentration screen
  remaining activity at 1.25 µM: 102%
[2]; Well no.=1339, high concentration screen
  remaining activity at 3.75 µM: 104%

## CCCCCCCCCCCCCCCC(=O)N[C@H](CN1CCOCC1)[C@H](O)c1ccccc1 (racemic) [DL-PPMP]
[1]; Well no.=4591, low concentration screen
  remaining activity at 1.25 µM: 93.5%
[2]; Well no.=4591, high concentration screen
  remaining activity at 3.75 µM: 100%

## Cn1cnc([N+](=O)[O-])c1Sc1ncnc2[nH]cnc12 [Azathioprine]
[1]; Well no.=111, low concentration screen
  remaining activity at 1.25 µM: 99.7%
[1]; Well no.=1834, low concentration screen
  remaining activity at 1.25 µM: 102%
[2]; Well no.=111, high concentration screen
  remaining activity at 3.75 µM: 100%
[2]; Well no.=1834, high concentration screen
  remaining activity at 3.75 µM: 97.6%

## CC[C@H](C)[C@H](N)C(=O)N1CCC[C@H]1C(=O)N[C@H](C(=O)O)[C@@H](C)CC [Ile-Pro-Ile]
[1]; Well no.=5849, low concentration screen
  remaining activity at 1.25 µM: 100%
[2]; Well no.=5849, high concentration screen
  remaining activity at 3.75 µM: 99.6%

## C[C@]12CC[C@@H](O)C[C@@H]1CC[C@@H]1[C@@H]2CC[C@]2(C)[C@@H](O)CC[C@@H]12 [5alpha-Androstane-3alpha,17beta-diol]
[1]; Well no.=244, low concentration screen
  remaining activity at 1.25 µM: 98.9%
[2]; Well no.=244, high concentration screen
  remaining activity at 3.75 µM: 94.8%

## Nc1cc[nH]c(=O)n1 [Cytosine]
[1]; Well no.=6579, low concentration screen
  remaining activity at 1.25 µM: 101%
[2]; Well no.=6579, high concentration screen
  remaining activity at 3.75 µM: 103%

## CCCCCCC[N+](CC)(CC)CCCCc1ccc(Cl)cc1 [Clofilium tosylate]
[1]; Well no.=6882, low concentration screen
  remaining activity at 1.25 µM: 91.1%
[2]; Well no.=6882, high concentration screen
  remaining activity at 3.75 µM: 90.5%

## NC(=O)C[C@H](N)C(=O)O [L-Asparagine]
[1]; Well no.=7741, low concentration screen
  remaining activity at 1.25 µM: 106%
[2]; Well no.=7741, high concentration screen
  remaining activity at 3.75 µM: 108%

## CN=c1nc(-c2ccccc2)n(-c2ccccc2)s1 [SCH-202676 hydrobromide]
[1]; Well no.=1314, low concentration screen
  remaining activity at 1.25 µM: 98.7%
[2]; Well no.=1314, high concentration screen
  remaining activity at 3.75 µM: 97.4%

## COc1ccc(S(=O)(=O)Nc2cc(Cl)cc(Cl)c2OC)cc1N1CCNCC1 [N-(3,5-dichloro-2-methoxyphenyl)-4-methoxy-3-(piperazin-1-yl)benzenesulfonamide hydrochloride]
[1]; Well no.=5561, low concentration screen
  remaining activity at 1.25 µM: 97.1%
[2]; Well no.=5561, high concentration screen
  remaining activity at 3.75 µM: 103%

## C[C@]12C=CC(=O)N[C@@H]1CC[C@@H]1[C@@H]2CC[C@]2(C)[C@@H](C(=O)Nc3cc(C(F)(F)F)ccc3C(F)(F)F)CC[C@@H]12 [Dutasteride]
[1]; Well no.=5107, low concentration screen
  remaining activity at 1.25 µM: 106%
[2]; Well no.=5107, high concentration screen
  remaining activity at 3.75 µM: 107%

## Nc1nccc(-c2c(-c3ccc(F)cc3)ncn2C2CCNCC2)n1 [SB220025]
[1]; Well no.=2604, low concentration screen
  remaining activity at 1.25 µM: 99.6%
[2]; Well no.=2604, high concentration screen
  remaining activity at 3.75 µM: 99.7%

## COc1cc(C=C(C#N)C#N)cc(O)c1O [Tyrphostin AG 34]
[1]; Well no.=1387, low concentration screen
  remaining activity at 1.25 µM: 102%
[2]; Well no.=1387, high concentration screen
  remaining activity at 3.75 µM: 101%

## CCC[C@H](NC(=O)/C(C#N)=C/c1cccc(Br)n1)c1ccccc1 [WP1130]
[1]; Well no.=4862, low concentration screen
  remaining activity at 1.25 µM: 95.4%
[2]; Well no.=4862, high concentration screen
  remaining activity at 3.75 µM: 98.1%

## O=c1oc2ccccc2c(O)c1Cc1c(O)c2ccccc2oc1=O [Dicoumarol]
[1]; Well no.=3547, low concentration screen
  remaining activity at 1.25 µM: 104%
[2]; Well no.=3547, high concentration screen
  remaining activity at 3.75 µM: 105%

## [2H]C([2H])([2H])NC[C@H](O)c1cccc(O)c1 [(R)-(-)-Phenylephrine (hydrochloride)]
[1]; Well no.=6707, low concentration screen
  remaining activity at 1.25 µM: 98.6%
[2]; Well no.=6707, high concentration screen
  remaining activity at 3.75 µM: 95.4%

## NC(CO)C(=O)NNCc1ccc(O)c(O)c1O (stereo not drawn) [Benserazide hydrochloride]
[1]; Well no.=367, low concentration screen
  remaining activity at 1.25 µM: 96.9%
[2]; Well no.=367, high concentration screen
  remaining activity at 3.75 µM: 96.5%

## CC[C@H]1OC(=O)[C@H](C)[C@@H](O[C@H]2C[C@@](C)(OC)[C@@H](O)[C@H](C)O2)[C@H](C)[C@@H](O[C@@H]2O[C@H](C)C[C@H](N(C)C)[C@H]2O)[C@](C)(O)C[C@@H](C)CN(C)[C@H](C)[C@@H](O)[C@]1(C)O [Azithromycin]
[1]; Well no.=2167, low concentration screen
  remaining activity at 1.25 µM: 97.4%
[2]; Well no.=2167, high concentration screen
  remaining activity at 3.75 µM: 102%

## C=C1CC[C@H](O)C/C1=C/C=C1\CCC[C@]2(C)[C@@H]([C@H](C)/C=C/[C@H](C)C(C)C)CC[C@@H]12 [Vitamin D2]
[1]; Well no.=7411, low concentration screen
  remaining activity at 1.25 µM: 107%
[2]; Well no.=7411, high concentration screen
  remaining activity at 3.75 µM: 106%

## O=C(c1ccc(/C=C/c2n[nH]c3ccccc23)cc1)N1CCNCC1 [KW 2449]
[1]; Well no.=5108, low concentration screen
  remaining activity at 1.25 µM: 102%
[2]; Well no.=5108, high concentration screen
  remaining activity at 3.75 µM: 107%

## CCS(=O)(=O)c1ccc(CC(=O)Nc2cc(Cl)c(-c3ccccc3OC(F)(F)F)c(Cl)c2)cc1 [GSK805]
[1]; Well no.=8657, low concentration screen
  remaining activity at 1.25 µM: 103%
[2]; Well no.=8657, high concentration screen
  remaining activity at 3.75 µM: 94.7%

## O=C(CCNNC(=O)c1ccncc1)NCc1ccccc1 [Nialamide]
[1]; Well no.=1091, low concentration screen
  remaining activity at 1.25 µM: 95.4%
[1]; Well no.=1837, low concentration screen
  remaining activity at 1.25 µM: 97.6%
[2]; Well no.=1091, high concentration screen
  remaining activity at 3.75 µM: 93.8%
[2]; Well no.=1837, high concentration screen
  remaining activity at 3.75 µM: 97.3%

## COc1ccc(N2CCOCC2)c2sc(NC(=O)N3CCC(C)(O)CC3)nc12 [Tozadenant]
[1]; Well no.=7049, low concentration screen
  remaining activity at 1.25 µM: 103%
[1]; Well no.=8115, low concentration screen
  remaining activity at 1.25 µM: 99%
[2]; Well no.=7049, high concentration screen
  remaining activity at 3.75 µM: 100%
[2]; Well no.=8115, high concentration screen
  remaining activity at 3.75 µM: 102%

## COC(=O)CCc1ccc(OCC(O)CNC(C)C)cc1 (stereo not drawn) [Esmolol]
[1]; Well no.=2286, low concentration screen
  remaining activity at 1.25 µM: 96.3%
[2]; Well no.=2286, high concentration screen
  remaining activity at 3.75 µM: 96.8%

## CC(C)(C)c1cc(C=C(C#N)C#N)cc(Br)c1O [AG 1024]
[1]; Well no.=2307, low concentration screen
  remaining activity at 1.25 µM: 104%
[2]; Well no.=2307, high concentration screen
  remaining activity at 3.75 µM: 104%

## CC(C)C[C@H](NC(=O)[C@H](Cc1ccccc1)NC(=O)CNC(=O)[C@@H](C)NC(=O)[C@@H](N)Cc1ccc(O)cc1)C(=O)O [[D-Ala2]leucine-enkephalin]
[1]
  remaining activity at 1.25 µM: 101%
[2]
  remaining activity at 3.75 µM: 98.6%

## c1cc2c(cc1[C@H]1OC[C@@H]3[C@H]1CO[C@H]3c1ccc3c(c1)OCO3)OCO2 [(-)-Asarinin]
[1]; Well no.=3160, low concentration screen
  remaining activity at 1.25 µM: 98.8%
[2]; Well no.=3160, high concentration screen
  remaining activity at 3.75 µM: 101%

## CC(C)NCC(O)c1ccc(NS(C)(=O)=O)cc1 (stereo not drawn) [Sotalol (hydrochloride)]
[1]; Well no.=6363, low concentration screen
  remaining activity at 1.25 µM: 100%
[2]; Well no.=6363, high concentration screen
  remaining activity at 3.75 µM: 98.6%

## O=c1c(-c2ccc(O)cc2)coc2cc(O)cc(O)c12 [Genistein - 5,7-Dihydroxy-3-(4-hydroxyphenyl)-4H-1-benzopyran-4-one]
[1]; Well no.=2342, low concentration screen
  remaining activity at 1.25 µM: 95.4%
[2]; Well no.=2342, high concentration screen
  remaining activity at 3.75 µM: 95.4%

## Cn1ncnc1COc1nn2c(-c3c(F)cccc3F)nnc2cc1C1CCC1 [MK-0343]
[1]; Well no.=5828, low concentration screen
  remaining activity at 1.25 µM: 101%
[2]; Well no.=5828, high concentration screen
  remaining activity at 3.75 µM: 102%
